From the supplement of paper PMC12463676, “Small-molecule dissolution of stress granules by redox modulation benefits ALS models” (Nature Chemical Biology, 2025) come the findings set out here.

Compound in test [1]: O=[As]([O-])(O)O.[K+] [potassium arsenate]
The experiment in a line: thermal stability z-score vs DMSO; higher = more thermally stabilized by treatment. The settings on record: HeLa; arsenate concentration 1 mM. How it is done: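 Cellular thermal proteome profiling in HeLa cells treated with 1 mM arsenate for 1 h (DMSO pretreatment), heated to ten temperatures (37-66.3 °C). Soluble protein was quantified by TMT mass spectrometry relative to DMSO controls; the thermal stability score was transformed to a z-score; mean of n = 3 experiments.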

Compound in test [2]: NC(=O)CCCCC1CCSS1 [lipoamide]
Described as above. The note with it: HeLa, lipoamide concentration 100 µM. The method, then:
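Cellular thermal proteome profiling in HeLa cells. Cells were treated with 100 µM lipoamide for 1 h, with or without 1 mM arsenate for a further 1 h, then heated to ten temperatures (37-66.3 °C), and soluble protein was quantified by TMT mass spectrometry relative to 0.1% DMSO controls. The thermal stability score (sum of log2 fold changes minus the abundance score) was transformed to a z-score; mean of n = 3 experiments.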

Where [3] appears, read: arsenate co-treatment: 1 mM arsenate 1 h.
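Note: each temperature applied for 3 min, abundance score taken as mean log2 fold change at the two lowest temperatures, z-score obtained by mean subtraction and division by SD.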

Chain of UniProt Q15646 (Q15646 whole entry): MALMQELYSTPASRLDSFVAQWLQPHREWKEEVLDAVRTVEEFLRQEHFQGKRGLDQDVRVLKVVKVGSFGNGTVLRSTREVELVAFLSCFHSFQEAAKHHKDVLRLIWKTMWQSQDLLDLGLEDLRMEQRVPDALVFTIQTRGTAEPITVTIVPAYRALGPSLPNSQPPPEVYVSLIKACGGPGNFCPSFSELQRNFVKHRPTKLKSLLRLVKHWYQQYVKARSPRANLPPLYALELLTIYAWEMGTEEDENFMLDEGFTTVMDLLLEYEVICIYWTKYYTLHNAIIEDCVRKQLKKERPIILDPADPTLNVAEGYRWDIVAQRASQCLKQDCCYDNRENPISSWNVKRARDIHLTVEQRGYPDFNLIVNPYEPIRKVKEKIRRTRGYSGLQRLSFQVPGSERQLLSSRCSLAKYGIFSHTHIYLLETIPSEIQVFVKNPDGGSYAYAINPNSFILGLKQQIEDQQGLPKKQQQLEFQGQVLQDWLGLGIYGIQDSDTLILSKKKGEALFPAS
Chain of UniProt P09493 (P09493 whole entry): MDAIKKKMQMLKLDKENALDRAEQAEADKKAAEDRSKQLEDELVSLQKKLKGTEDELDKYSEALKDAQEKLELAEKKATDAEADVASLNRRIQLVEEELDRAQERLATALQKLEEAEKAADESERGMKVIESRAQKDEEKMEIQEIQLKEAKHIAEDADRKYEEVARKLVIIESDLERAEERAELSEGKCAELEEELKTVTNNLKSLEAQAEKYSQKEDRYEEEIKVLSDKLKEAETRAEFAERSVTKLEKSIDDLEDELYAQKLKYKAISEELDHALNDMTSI
Chain of UniProt Q8TBZ6 (Q8TBZ6 whole entry): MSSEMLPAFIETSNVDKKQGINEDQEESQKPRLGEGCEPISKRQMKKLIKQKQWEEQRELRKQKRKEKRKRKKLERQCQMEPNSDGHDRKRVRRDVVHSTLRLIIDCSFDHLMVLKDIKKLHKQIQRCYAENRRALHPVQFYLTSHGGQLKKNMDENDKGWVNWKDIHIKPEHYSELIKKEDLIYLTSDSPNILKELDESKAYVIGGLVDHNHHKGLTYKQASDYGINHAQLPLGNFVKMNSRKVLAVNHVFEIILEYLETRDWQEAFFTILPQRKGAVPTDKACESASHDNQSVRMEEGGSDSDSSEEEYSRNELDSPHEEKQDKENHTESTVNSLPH
Chain of UniProt Q14694 (Q14694 whole entry): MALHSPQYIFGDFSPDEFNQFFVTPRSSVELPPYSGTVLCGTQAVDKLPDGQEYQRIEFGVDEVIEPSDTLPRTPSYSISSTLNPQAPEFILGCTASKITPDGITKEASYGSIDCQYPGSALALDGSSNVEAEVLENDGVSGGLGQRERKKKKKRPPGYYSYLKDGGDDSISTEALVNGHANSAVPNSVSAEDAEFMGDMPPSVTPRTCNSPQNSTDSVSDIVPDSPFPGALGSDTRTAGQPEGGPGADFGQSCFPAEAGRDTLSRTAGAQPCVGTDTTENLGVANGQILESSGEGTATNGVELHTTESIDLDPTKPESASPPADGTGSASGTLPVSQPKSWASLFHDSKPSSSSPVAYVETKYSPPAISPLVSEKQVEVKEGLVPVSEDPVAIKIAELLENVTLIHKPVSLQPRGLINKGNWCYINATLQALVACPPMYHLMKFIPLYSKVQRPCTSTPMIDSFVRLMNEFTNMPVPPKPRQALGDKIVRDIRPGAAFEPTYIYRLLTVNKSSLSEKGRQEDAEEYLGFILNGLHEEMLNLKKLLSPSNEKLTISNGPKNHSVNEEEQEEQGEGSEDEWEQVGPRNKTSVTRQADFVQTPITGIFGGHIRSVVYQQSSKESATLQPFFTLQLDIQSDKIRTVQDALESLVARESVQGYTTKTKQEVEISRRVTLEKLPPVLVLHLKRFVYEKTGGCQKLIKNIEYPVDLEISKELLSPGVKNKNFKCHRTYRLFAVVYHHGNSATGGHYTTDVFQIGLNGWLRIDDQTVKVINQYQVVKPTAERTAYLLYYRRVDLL
Chain of UniProt P34932 (P34932 whole entry): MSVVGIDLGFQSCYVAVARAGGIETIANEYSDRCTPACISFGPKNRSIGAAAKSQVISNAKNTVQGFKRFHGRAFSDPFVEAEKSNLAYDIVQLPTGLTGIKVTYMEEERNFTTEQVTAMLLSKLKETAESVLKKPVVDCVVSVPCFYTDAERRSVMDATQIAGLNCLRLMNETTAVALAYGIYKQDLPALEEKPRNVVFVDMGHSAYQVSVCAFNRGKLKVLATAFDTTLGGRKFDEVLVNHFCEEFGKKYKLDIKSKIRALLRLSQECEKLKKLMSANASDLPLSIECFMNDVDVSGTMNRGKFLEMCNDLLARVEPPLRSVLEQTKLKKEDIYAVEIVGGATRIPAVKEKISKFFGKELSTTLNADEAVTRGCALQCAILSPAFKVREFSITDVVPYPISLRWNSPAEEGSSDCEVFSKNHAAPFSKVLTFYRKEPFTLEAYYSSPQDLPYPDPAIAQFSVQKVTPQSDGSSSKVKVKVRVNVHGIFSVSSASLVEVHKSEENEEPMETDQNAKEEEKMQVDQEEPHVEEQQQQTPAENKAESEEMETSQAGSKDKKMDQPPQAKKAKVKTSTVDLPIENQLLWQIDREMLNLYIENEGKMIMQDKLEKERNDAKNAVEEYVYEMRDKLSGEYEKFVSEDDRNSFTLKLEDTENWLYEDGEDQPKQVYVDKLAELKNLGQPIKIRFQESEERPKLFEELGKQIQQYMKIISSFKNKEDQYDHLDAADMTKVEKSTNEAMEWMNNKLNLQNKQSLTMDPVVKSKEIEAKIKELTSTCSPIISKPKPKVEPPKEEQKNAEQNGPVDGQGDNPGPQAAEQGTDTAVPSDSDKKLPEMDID
Chain of UniProt Q9NSY1 (Q9NSY1 whole entry, looked up): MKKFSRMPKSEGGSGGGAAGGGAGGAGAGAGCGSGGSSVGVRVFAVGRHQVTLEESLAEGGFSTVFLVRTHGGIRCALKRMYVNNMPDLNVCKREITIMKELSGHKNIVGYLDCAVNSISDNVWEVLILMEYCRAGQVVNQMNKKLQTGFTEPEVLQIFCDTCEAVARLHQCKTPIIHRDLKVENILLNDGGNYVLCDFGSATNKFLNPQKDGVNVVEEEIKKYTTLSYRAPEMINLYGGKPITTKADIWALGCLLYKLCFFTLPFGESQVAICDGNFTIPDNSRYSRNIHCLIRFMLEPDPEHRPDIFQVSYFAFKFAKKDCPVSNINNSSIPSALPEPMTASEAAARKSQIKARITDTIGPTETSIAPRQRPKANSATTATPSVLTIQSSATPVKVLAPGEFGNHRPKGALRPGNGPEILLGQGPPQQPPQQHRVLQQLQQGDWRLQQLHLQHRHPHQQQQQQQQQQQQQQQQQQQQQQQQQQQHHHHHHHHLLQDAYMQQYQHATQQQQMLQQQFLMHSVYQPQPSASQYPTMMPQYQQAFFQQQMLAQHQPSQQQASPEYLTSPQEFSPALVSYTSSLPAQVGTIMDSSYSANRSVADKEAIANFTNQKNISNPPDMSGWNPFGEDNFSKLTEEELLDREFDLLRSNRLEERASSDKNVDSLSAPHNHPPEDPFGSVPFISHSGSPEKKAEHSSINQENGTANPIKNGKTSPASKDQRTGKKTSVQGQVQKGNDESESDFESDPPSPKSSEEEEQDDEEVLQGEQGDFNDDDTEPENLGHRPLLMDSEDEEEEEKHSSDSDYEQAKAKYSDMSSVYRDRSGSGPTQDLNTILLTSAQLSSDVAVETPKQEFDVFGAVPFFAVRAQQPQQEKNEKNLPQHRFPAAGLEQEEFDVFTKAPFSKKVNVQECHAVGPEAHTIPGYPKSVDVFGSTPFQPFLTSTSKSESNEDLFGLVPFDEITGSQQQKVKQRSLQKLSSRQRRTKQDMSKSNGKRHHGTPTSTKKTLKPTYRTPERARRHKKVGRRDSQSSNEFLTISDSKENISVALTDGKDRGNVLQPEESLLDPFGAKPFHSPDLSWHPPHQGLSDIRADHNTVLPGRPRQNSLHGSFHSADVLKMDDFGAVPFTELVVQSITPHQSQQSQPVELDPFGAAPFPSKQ
Chain of UniProt P31153 (P31153 whole entry, looked up): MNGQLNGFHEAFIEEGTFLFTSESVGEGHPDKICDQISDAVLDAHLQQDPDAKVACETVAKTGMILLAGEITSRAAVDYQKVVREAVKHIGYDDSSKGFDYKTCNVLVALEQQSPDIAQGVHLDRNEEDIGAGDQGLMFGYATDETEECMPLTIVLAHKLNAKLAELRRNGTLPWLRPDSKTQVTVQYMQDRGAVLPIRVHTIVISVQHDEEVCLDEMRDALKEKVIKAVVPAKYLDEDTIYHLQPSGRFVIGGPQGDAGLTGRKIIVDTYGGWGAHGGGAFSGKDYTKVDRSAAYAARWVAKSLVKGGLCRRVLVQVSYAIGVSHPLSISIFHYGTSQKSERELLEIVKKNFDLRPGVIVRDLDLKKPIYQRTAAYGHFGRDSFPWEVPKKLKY
Chain of UniProt P58557 (P58557 whole entry): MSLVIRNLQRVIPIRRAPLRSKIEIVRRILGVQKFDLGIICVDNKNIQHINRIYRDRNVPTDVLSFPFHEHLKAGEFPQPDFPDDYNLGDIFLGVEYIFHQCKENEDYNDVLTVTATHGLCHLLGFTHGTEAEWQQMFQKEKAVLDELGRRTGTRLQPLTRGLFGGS
Chain of UniProt Q7Z6M4 (Q7Z6M4 whole entry): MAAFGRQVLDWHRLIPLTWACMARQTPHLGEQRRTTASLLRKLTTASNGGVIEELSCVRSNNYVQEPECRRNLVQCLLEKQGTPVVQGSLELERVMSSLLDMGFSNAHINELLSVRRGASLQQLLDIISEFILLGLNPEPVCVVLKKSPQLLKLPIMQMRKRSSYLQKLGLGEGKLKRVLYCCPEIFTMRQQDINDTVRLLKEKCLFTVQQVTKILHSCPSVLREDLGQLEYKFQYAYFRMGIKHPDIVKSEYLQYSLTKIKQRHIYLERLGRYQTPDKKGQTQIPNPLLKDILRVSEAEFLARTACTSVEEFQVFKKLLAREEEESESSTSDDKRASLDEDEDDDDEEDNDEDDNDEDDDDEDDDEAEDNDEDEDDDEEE
Chain of UniProt P84101 (P84101 whole entry): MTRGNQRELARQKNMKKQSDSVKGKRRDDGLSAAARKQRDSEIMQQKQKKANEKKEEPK

For HMGB1 (UniProt P09429), the thermal stability z-score in test [1] amounted to 0.309; in test [2] (setting [3]), 0.26; in test [2] (arsenate co-treatment: none), 0.59.
The matching figures for OASL (UniProt Q15646): -0.307, -0.147 and -0.0704.
The matching figures for TRMT10A (UniProt Q8TBZ6): 0.266, -0.927 and -0.427.
In the case of BMP2K (UniProt Q9NSY1), the thermal stability z-score is 0.122 in test [1], -0.986 in test [2] (setting [3]) and -0.217 in test [2] (arsenate co-treatment: none).
The matching figures for TPM1 (UniProt P09493): -0.151, 0.347 and 0.422.
SLU7 (UniProt O95391): the figures for the thermal stability z-score in test [1], in test [2] (setting [3]) and in test [2] (arsenate co-treatment: none) were -0.0775, -0.353 and -0.364, respectively.
The matching figures for HSPA4 (UniProt P34932): -0.388, 0.102 and 0.475.
The matching figures for LZTFL1 (UniProt Q9NQ48): -0.312, 0.0385 and 0.0985.
The matching figures for YBEY (UniProt P58557): 0.131, -0.077 and 0.169.
With ALAD (UniProt P13716), the thermal stability z-score in test [1] was 0.112; in test [2] (setting [3]) it was 0.313; in test [2] (arsenate co-treatment: none), 0.885.
The matching figures for CFAP36 (UniProt Q96G28): 0.177, 0.177 and 0.267.
The matching figures for TSEN54 (UniProt Q7Z6J9): 0.795, -0.815 and 0.162.
The matching figures for UGGT1 (UniProt Q9NYU2): 0.639, -3.22 and -2.7.
For MTERF4 (UniProt Q7Z6M4), the thermal stability z-score is -0.0404 in test [1], -0.0828 in test [2] (setting [3]) and 0.0195 in test [2] (arsenate co-treatment: none).
For the target KMT2D (UniProt O14686), the thermal stability z-score in test [1] is -0.661; in test [2] (setting [3]), -0.298; in test [2] (arsenate co-treatment: none) it was -0.455.
The matching figures for VPS13C (UniProt Q709C8): -0.213, 0.038 and -0.033.
Regarding CSDE1 (UniProt O75534), the thermal stability z-score in test [1] is -0.273; in test [2] (setting [3]), -0.138; in test [2] (arsenate co-treatment: none), 0.281.
The matching figures for TFB1M (UniProt Q8WVM0): 0.0871, -0.367 and 0.233.
USP10 (UniProt Q14694): the values for the thermal stability z-score in test [1], in test [2] (setting [3]) and in test [2] (arsenate co-treatment: none) were -0.241, 0.103 and 0.045, respectively.
The matching figures for SLC5A3 (UniProt P53794): -1.12, -0.536 and -0.363.
The matching figures for PLEKHO2 (UniProt Q8TD55): -0.257, 0.146 and 0.015.
In the case of RPS6KA4 (UniProt O75676), the thermal stability z-score in test [1] is 0.0157; in test [2] (setting [3]), -0.327; in test [2] (arsenate co-treatment: none) it was -0.0905.
For the target SERF2 (UniProt P84101), the thermal stability z-score in test [1] was -0.113; in test [2] (setting [3]), 0.715; in test [2] (arsenate co-treatment: none), 0.165.
The matching figures for RPSA (UniProt P08865): -1.42, 0.555 and 0.847.
The matching figures for WARS2 (UniProt Q9UGM6): -0.284, -0.731 and -0.143.
The matching figures for MAT2A (UniProt P31153): 0.337, -0.418 and -0.422.
Regarding RHOT2 (UniProt Q8IXI1), the values for the thermal stability z-score in test [1], in test [2] (setting [3]) and in test [2] (arsenate co-treatment: none) were -0.176, -0.832 and -0.929, respectively.
The matching figures for HNRNPA1 (UniProt P09651): -1.94, -1.06 and -1.24.
The matching figures for ALDH1B1 (UniProt P30837): -1.44, 1.12 and 0.881.
The matching figures for NME3 (UniProt Q13232): 0.673, 0.0656 and 0.615.
Consider ABCB1 (UniProt P08183), for which the thermal stability z-score was -0.039 in test [1], 0.00691 in test [2] (setting [3]) and 0.00658 in test [2] (arsenate co-treatment: none).
The matching figures for ZNF629 (UniProt Q9UEG4): -0.114, 0.162 and -0.369.
Take FARSA (UniProt Q9Y285): the thermal stability z-score in test [1] was 0.0543; in test [2] (setting [3]) it was -1.41; in test [2] (arsenate co-treatment: none) it was -0.546.
The matching figures for HEXIM2 (UniProt Q96MH2): 0.53, -0.264 and 0.637.
The matching figures for PRSS21 (UniProt Q9Y6M0): 1.03, -3 and -2.45.
The matching figures for ASL (UniProt P04424): -0.112, 0.153 and -0.627.
Regarding TSG101 (UniProt Q99816), the thermal stability z-score in test [1] is -0.0661; in test [2] (setting [3]), 0.29; in test [2] (arsenate co-treatment: none), 0.0321.
The matching figures for AFAP1 (UniProt Q8N556): -0.957, 0.411 and -0.0977.
As to RRS1 (UniProt Q15050), the thermal stability z-score was -2.24 in test [1], 1.32 in test [2] (setting [3]) and -0.132 in test [2] (arsenate co-treatment: none).
The matching figures for SMAP2 (UniProt Q8WU79): -1.45, -1.95 and -0.774.
The matching figures for MKRN1 (UniProt Q9UHC7): -0.138, -0.0831 and -0.0834.
With PRTFDC1 (UniProt Q9NRG1), the thermal stability z-score is -0.386 in test [1], 0.628 in test [2] (setting [3]) and 0.169 in test [2] (arsenate co-treatment: none).
